Results on 17 sequences are retold here after PMC7537397, “Deciphering and predicting CD4^+ T cell immunodominance of influenza virus hemagglutinin” (The Journal of Experimental Medicine, 2020).

In assay [1] the test system is H1-HA–reactive T cell clones from CD4^+ naive T cell compartment. In kind it is cell-based, human.
Assay [2] has as its system H1-HA–specific memory CD4^+ T cell clones, donor HD1. In words: Functional avidity of memory T cell clones with anti-head or anti-stem EBV-B cell clones as APCs. Type of assay: cell-based, human. To be noted: HLA-DR–restricted clones specific for the peptide.
In assay [3] the test system is HLA-DR, HLA-DQ, HLA-DP. In words: MHC-II restriction of T cell clones with blocking antibodies. In kind it is cell-based, human.
The test system of assay [4] is MHC-II molecules. Description: MS-based MHC-II peptidomics, H1-HA–pulsed anti-head and anti-stem EBV-B cell clones of donor HD1. The arrangement: species or system human. As to conditions: 401–420: anti-stem clone; 416–430 and 386–400: both anti-head and anti-stem clones; union of n = 3.
Assay [5] has as its target HLA-DRB1*08:01 (Homo sapiens, UniProt P01903+P01911, A100R/A103L/A169T/D86S/F76Y/H45Y/I96F/K41T/L162R/M171V/P40S/Q125H/Q178H/Q39Y/Q99D/R218S/R42G/S66Y/V115G/W38E). Type of assay: binding. To be noted: pH 7.
Assay [6] relates to H1-HA–reactive T cell clones from CD4^+ memory (Tcm, Tem, or cTfh) compartment, donor HD1. Type of assay: cell-based, human.
The test system of assay [7] is H1-HA–specific memory CD4^+ T cell clones, donor HD1. In kind it is cell-based, human. As to conditions: for functional avidity for peptide, memory T cell clone specific for the peptide: donor HD1 memory clones M1 (411–430), M2 (396–410), M3 (526–540), M4 (121–140), M5 (186–200), M6 (446–460), autologous monocytes; for functional avidity for peptide, memory T cell clone specific for the peptide / functional avidity for H1-HA protein, memory T cell clone specific for the peptide: from EC50, day 3; for functional avidity for H1-HA protein, memory T cell clone specific for the peptide: donor HD1 memory clones M1, M4, M5, M6; for fold lower functional avidity for H1-HA protein, memory T cell clone specific for the peptide: clones M2 (396–410) and M3 (526–540), had avidity for peptide comparable to clone M1.

Assay [8] relates to H1-HA–specific naive CD4^+ T cell clones, donor HD1. Type of assay: cell-based, human. As to conditions: for fold lower avidity for protein, naive T cell clone specific for the peptide: clones N2 (521–540) and N3 (536–555); for functional avidity for peptide, naive T cell clone specific for the peptide: donor HD1 naive clones N1 (411–430), N2 (521–540), N3 (536–555), autologous monocytes, from EC50, day 3.

The subject of assay [9] is naive and memory CD4^+ T cells. In words: T cell library screening and epitope mapping, naive and memory CD4^+ T cells. In kind it is cell-based, human. To be noted: memory library.

As for AGAKSFYKNLIWLVKKGNSY, in assay [1], the “N sister clones (epitope-specific naive clones per TCR Vβ clonotype)” value is given as 1.
Regarding EDKHNGKLCKLRGVAPLHLG, in [1], the “N sister clones (epitope-specific naive clones per TCR Vβ clonotype)” value worked out at 1.
Take EGRMNYYWTLVEPGDKITFE: in assay [2], the “activation, proliferation and functional avidity with anti-stem compared with anti-head B cells as APCs” value was “much lower activation and proliferation”; the “reduction of functional avidity with anti-stem compared with anti-head B cells as APCs” value amounted to 10 fold. In addition, the “MHC-II restriction of T cell clones specific for the peptide” value (shortened to “MHC-II restriction”) in assay [3] is recorded as “HLA-DR restricted”.
Regarding EKMNTQFTAVGKEFNHLEKR, the “detection of H1-HA–derived peptides of the region by MHC-II immunopeptidomics, HD1 B cell clones” value (shortened to “detection”) in assay [4] is given as “did not detect any”. Also, in [2], the “activation, proliferation and functional avidity with anti-stem compared with anti-head B cells as APCs” value is “much lower activation and proliferation”; the “reduction of functional avidity with anti-stem compared with anti-head B cells as APCs” value stood at 10 fold. For the same sequence, the “binding affinity to HLA-DRB1*08:01 relative to subdominant peptides” value in assay [5] is “comparable to that of subdominant peptides”. Also, the “MHC-II restriction” value in [3] is reported as “HLA-DR restricted”. Besides, the “number of different TCR Vβ clonotypes specific for the peptide” value in assay [6] (88 distinct clonotypes in total) was 16 clonotypes. Further, the “number of sequenced T cell clones specific for the peptide” value in assay [6] (274 clones sequenced) is reported as 62 clones.
With GFLDIWTYNAELLVL, the “N sister clones (epitope-specific naive clones per TCR Vβ clonotype)” value in assay [1] is listed as 1.
Still for that read-out and setting: the result for GFLDIWTYNAELLVLLENER reads 1; that for GKLCKLRGVAPLHLG, 1.
Consider HLEKRIENLNKKVDD, for which the “detection” value in [4] is “detected by MHC-II immunopeptidomics on both anti-head and anti-stem B cell clones”. The “activation, proliferation and functional avidity with anti-stem compared with anti-head B cells as APCs” value in assay [2] is recorded as “comparable functional avidity”. In addition, in [3], the “MHC-II restriction” value is reported as “HLA-DR–restricted”.
Regarding KGKEVLVLWGIHHPS, the “MHC-II restriction” value in assay [3] was “HLA-DQ”. For the same sequence, in [7], the “functional avidity for peptide, memory T cell clone specific for the peptide” value is “functional avidity lower than the median of the distribution” and the “functional avidity for H1-HA protein, memory T cell clone specific for the peptide” value is “functional avidity lower than the median of the distribution”.
KLESTRIYQILAIYSTVASS: in [8], the “fold lower avidity for protein, naive T cell clone specific for the peptide” value is 100 fold and the “functional avidity for peptide, naive T cell clone specific for the peptide” value was “high avidity”.
On to LENERTLDYHDSNVK, for which the “MHC-II restriction” value in assay [3] was “HLA-DQ”. In assay [7], the “functional avidity for peptide, memory T cell clone specific for the peptide” value was “functional avidity lower than the median of the distribution” and the “functional avidity for H1-HA protein, memory T cell clone specific for the peptide” value is recorded as “functional avidity lower than the median of the distribution”.
QNAIDEITNKVNSVI: in assay [4], the “detection” value was “detected by MHC-II immunopeptidomics on both anti-head and anti-stem B cell clones”. Further, the “activation, proliferation and functional avidity with anti-stem compared with anti-head B cells as APCs” value in assay [2] is reported as “comparable functional avidity”. For the same sequence, the “MHC-II restriction” value in [3] was “HLA-DR–restricted”.
For RIYQILAIYSTVASS, in [7], the “fold lower functional avidity for H1-HA protein, memory T cell clone specific for the peptide” value is recorded as 1,000 fold and the “functional avidity for peptide, memory T cell clone specific for the peptide” value is “high functional avidity”.
In the case of SRYSKKFKPEIAIRPKVRDQ, in assay [1], the “N sister clones (epitope-specific naive clones per TCR Vβ clonotype)” value came to 1.
In the case of TVASSLVLVVSLGAISFWMC, in [8], the “fold lower avidity for protein, naive T cell clone specific for the peptide” value is 100 fold and the “functional avidity for peptide, naive T cell clone specific for the peptide” value is on record as “high avidity”. Also, the “N sister clones (epitope-specific naive clones per TCR Vβ clonotype)” value in assay [1] is reported as 1.
On to VNSVIEKMNTQFTAV, for which, in assay [7], the “fold lower functional avidity for H1-HA protein, memory T cell clone specific for the peptide” value is reported as 1,000 fold and the “functional avidity for peptide, memory T cell clone specific for the peptide” value is recorded as “high functional avidity”. Moreover, the “percentage of immunodominant T cell clones” value in assay [9] (donor HD4) was 31.1%.
Regarding VVPRYAFAMERNAGSGIIIS, the “percentage of immunodominant T cell clones” value in assay [9] (donor HD3) turned out to be 24.5%.
